Source: ChEMBL document CHEMBL1781985, “Carbonic anhydrase inhibitors. Phenacetyl-, pyridylacetyl- and thienylacetyl-substituted aromatic sulfonamides act as potent and selective isoform VII inhibitors” (Bioorg Med Chem Lett, 2009)

Experiments:
Carbonic anhydrase 1 = Carbonic anhydrase 1 (Homo sapiens, UniProt P00915)
Carbonic anhydrase 2 = Carbonic anhydrase 2 (Homo sapiens, UniProt P00918)
Carbonic anhydrase 7 = Carbonic anhydrase 7 (Homo sapiens, UniProt P43166)
Chain of Carbonic anhydrase 7 (P43166 whole entry): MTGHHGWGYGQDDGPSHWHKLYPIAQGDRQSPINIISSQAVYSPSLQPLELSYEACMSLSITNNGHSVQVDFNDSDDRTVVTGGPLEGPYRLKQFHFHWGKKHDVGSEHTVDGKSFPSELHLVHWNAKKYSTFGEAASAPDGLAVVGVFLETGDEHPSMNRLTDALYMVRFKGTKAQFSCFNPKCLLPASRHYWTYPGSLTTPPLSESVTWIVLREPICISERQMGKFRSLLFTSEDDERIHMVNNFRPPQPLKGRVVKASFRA

Chain of Carbonic anhydrase 1 (P00915 whole entry): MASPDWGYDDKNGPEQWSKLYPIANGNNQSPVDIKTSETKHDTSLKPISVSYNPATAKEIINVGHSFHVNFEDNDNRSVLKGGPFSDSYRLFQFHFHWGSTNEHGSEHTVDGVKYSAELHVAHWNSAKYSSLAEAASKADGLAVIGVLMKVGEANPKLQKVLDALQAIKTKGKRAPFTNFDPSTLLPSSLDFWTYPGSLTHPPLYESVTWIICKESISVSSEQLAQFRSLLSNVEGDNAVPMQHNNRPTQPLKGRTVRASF

Row | Compound | Ki (Carbonic anhydrase 1) [nM] | Ki (Carbonic anhydrase 2) [nM] | Ki (Carbonic anhydrase 7) [nM]
1 | NS(=O)(=O)c1ccc(NC(=O)Cc2cccs2)cc1 | 61 | 50 | 6.2
2 | NS(=O)(=O)c1ccc(CNC(=O)Cc2cccs2)cc1 | 60 | 52 | 7.1
3 | NS(=O)(=O)c1ccc(NC(=O)Cc2ccccc2)cc1 | 108 | 107 | 4.7
4 | NS(=O)(=O)c1ccc(CCNC(=O)Cc2cccs2)cc1 | 68 | 53 | 7.6
